Results taken from patent US20260097029A1, “Tetrahydroquinoline Compounds As Antitumor Agents” (priority 2022, published 2026).
Where two headings read alike, the source gives them in different places.

Experiments:
Type in all cases: cell-based
[1] = test system: ALT-positive, telomerase-positive, ALT- and telomerase-positive, and normal cell lines; experiment: Proliferation and cell death across panel of ALT-positive, telomerase-positive, ALT- and telomerase-positive and normal cell lines; conditions: for toxicity across cell lines (FIG. 5): 0-25 μM, different cell lines
Method: (§1) U2OS cells were treated with compounds 1, 2, 14, and 32 at concentrations of 0, 0.625, 1.25, 2.5, 5, 10, 15, 20 and 25 μM. Cell proliferation (confluency) and cytotoxicity (CellTox™ Green confluency) were assessed using the IncuCyte® live cell imaging platform. Cell death was calculated as a percentage of overall confluency, using CellTox™ Green confluency as a percentage of total cell confluence. Cell toxicity measurements were capped at the time point at which cells reached complete confluency. This was to account for cell death due to over-confluency of cells, rather than as a result of compounds' effects. The same experiments were also performed on a list of ALT-positive, telomerase-positive, ALT- and telomerase-positive, and normal cell lines. For the ALT-positive cell lines GM847, SK—N—FI, HuO9, Saos-2, CAL72, IIICF/c, and HS729 were employed. For the telomerase-positive cells HCT116, HeLa, HT1080, SK—N—Be2, and SK—N-AS, and KELLY were used. For the ALT-positive/telomerase-positive and mortal cell strains GM847 hTERT, MRC-5, and IMR-90 were employed.

FANCM-BTR interaction = biological target: T1, FANCM-BTR interaction (Homo sapiens, UniProt Q8IYD8+Q9H9A7); experiment: Co-immunoprecipitation with RMI1 antibody in U2OS cells, western blot; conditions: treatment at the IC50 concentration, 72 hours
T1 construct: endogenous in cells; host or cells: U2OS
Method: To determine whether the compounds disrupt the FANCM-BTR interaction, co-immunoprecipitation experiments using the RMI1 antibody were performed in the presence and absence of compounds 1, 2, 14, 32, and the already reported compound PIP-199 treatments as well as the scambled, siFANCM and DMSO. This method provides information indicating the direct binding of proteins and is highly specific and simple to perform. U2OS cells were seeded at 50% confluency in 150 cm^2 flasks (BD Falcon). After 24 hours, cells were treated with scrambled, siFANCM and DMSO (0.3%, determined by the maximal DMSO concentration present in drugs) treatments, and 2, 14, 32, PIP-199 treatments at their IC50 concentrations. After 72 hours, cells were washed once with warm PBS, trypsinised for 5 minutes at 37° C., resuspended in media and counted using a Beckman Coulter cell counter. Cells were collected in pellets in Protein Lobind tubes (Eppendorf) by centrifugation at 200×g at 4° C. and supernatant was discarded. […]
The Dynabeads®-Ab-protein complex was washed three times using 200 μL ice cold Lysis Buffer B for each wash. […] The eluates were analysed by western blot and the data was quantitated using ImageJ software (National Institutes of Health). Eluates were expressed as a percentage of their respective lysates to show relative differences between treatments.

U2OS cells [2] = experiment: U2OS cell proliferation (confluency), IncuCyte live cell imaging; conditions: for IC50: confluency, read-out: IC50 (concentration of drug that inhibits 50% of cell growth)
Method: as §1

U2OS cells [3] = experiment: U2OS cytotoxicity / cell death (CellTox Green confluency), IncuCyte; conditions: Homo sapiens, read-out: EC50 (concentration that effectively causes 50% of cell death)
Method: as §1

FANCM levels co-immunoprecipitated with RMI1 (FANCM-BTR interaction)	IC50 (U2OS cells [2]; Homo sapiens, U2OS)	IC50 (U2OS cells [2])	SMILES	toxicity across cell lines (FIG. 5) [1]	comparison of IC50 and EC50 values across the panel of cell lines ([1]; ALT-positive vs telomerase-positive, ALT/telomerase-positive and mortal cell lines)	inhibition of U2OS cell viability (U2OS cells [2]; preliminary cell-based assays)	EC50 (U2OS cells [3])
–	–	–	CCN1CCCc2cc(CN(C3CCCC3)S(=O)(=O)c3cccc([N+](=O)[O-])c3)ccc21 [Compound 1, N-cyclopentyl-N-((1-ethyl-1,2,3,4-tetrahydroquinolin-6-yl)methyl)-3-nitrobenzenesulfon-amide]	concentration-dependent toxicity that is partly selective to the ALT cell lines	–	–	–
–	–	–	CCN1CCCc2cc(CN(C3CCCC3)S(=O)(=O)c3ccc(CCOC)cc3)ccc21 [Compound 14, N-cyclopentyl-N-((1-ethyl-1,2,3,4-tetrahydroquinolin-6-yl)methyl)-4-(2-methoxy-ethyl)benzenesulfonamide]	concentration-dependent toxicity that is partly selective to the ALT cell lines	–	–	–
decrease in FANCM levels	15.5 µM	15.5 µM	CCN1CCCc2cc(CN(C3CCCC3)S(=O)(=O)c3ccc(NCc4c[nH]cn4)cc3)ccc21 [Compound 32, 4-(((1H-imidazol-4-yl)methyl)amino)-N-cyclopentyl-N-((1-ethyl-1,2,3,4-tetrahydroquinolin-6-yl)methyl)benzenesulfonamide]	–	selective induction of ALT-cell death	shows inhibition of U2OS cell viability	1.36 µM
